# Reference: PubChem BioAssay (NCI)
#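 A five-concentration, 48-hour dose response in 96-well plates underlies each endpoint, interpolated linearly between surrounding concentrations. The concentration for 50% growth inhibition is given as GI50. TGI is the concentration that stops growth completely.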
# What was measured:
# Assay in all cases: NCI-60 cell line screen, 48 h
# SF-268 CNS = system: SF-268 CNS
# A549 NSCLC = system: A549 NSCLC
# SNB-19 CNS = system: SNB-19 CNS
# HL-60(TB) leukemia = system: HL-60(TB) leukemia
# NCI-H522 lung = system: NCI-H522 lung
# HOP-62 NSCLC = system: HOP-62 NSCLC
# 786-0 renal = system: 786-0 renal
# OVCAR-4 ovarian = system: OVCAR-4 ovarian
# SNB-75 CNS = system: SNB-75 CNS
# OVCAR-3 ovarian = system: OVCAR-3 ovarian
SMILES,TGI (SF-268 CNS),TGI (A549 NSCLC),TGI (SNB-19 CNS),TGI (HL-60(TB) leukemia),TGI (NCI-H522 lung),TGI (HOP-62 NSCLC),TGI (786-0 renal),TGI (OVCAR-4 ovarian),TGI (SNB-75 CNS),TGI (OVCAR-3 ovarian),GI50 (SF-268 CNS),GI50 (A549 NSCLC),GI50 (SNB-19 CNS),GI50 (HL-60(TB) leukemia),GI50 (NCI-H522 lung),GI50 (HOP-62 NSCLC),GI50 (786-0 renal),GI50 (OVCAR-4 ovarian),GI50 (SNB-75 CNS),GI50 (OVCAR-3 ovarian)
Cc1ccc(NC(=O)C2C(=O)N(c3ccc(C)c(C)c3)C(=O)C2N=N)cc1C (stereo not drawn),> 100000 nM,> 100000 nM,> 100000 nM,> 100000 nM,> 100000 nM,> 100000 nM,> 100000 nM,> 100000 nM,> 100000 nM,> 100000 nM,,,,,,,,,,
COc1cc(C2c3cc4c(cc3C(O)C(CO)C2CO)OCO4)cc(OC)c1OC (stereo not drawn),> 100000 nM,> 100000 nM,> 100000 nM,,,> 100000 nM,> 100000 nM,> 100000 nM,> 100000 nM,1940 nM,3320 nM,1640 nM,2600 nM,322 nM,380 nM,1470 nM,6590 nM,7600 nM,594 nM,372 nM
CC1(C)OCCn2c1nc1c(N3CCOCC3)nc(-c3cnc(N)nc3)nc12,> 100000 nM,4400 nM,> 30200 nM,> 31300 nM,40800 nM,6560 nM,5090 nM,8820 nM,817 nM,> 31500 nM,426 nM,283 nM,1010 nM,141 nM,415 nM,477 nM,344 nM,278 nM,56.3 nM,308 nM
COC12C=C/C(=C(/C(=O)OCc3ccncc3)C(=O)CCCCCCCCC3(OC)C=C/C(=C(/C(=O)OCc4ccncc4)C(=O)CCCCCCCC1)O3)O2,3280 nM,2800 nM,7170 nM,1960 nM,1760 nM,5590 nM,1190 nM,3410 nM,1970 nM,930 nM,1040 nM,979 nM,1280 nM,371 nM,564 nM,1180 nM,354 nM,583 nM,779 nM,207 nM
Cn1cc(C2=C(c3cn(C)c4cc(C(N)=O)ccc34)C(=O)NC2=O)c2ccccc21,> 18300 nM,> 25000 nM,> 25000 nM,3480 nM,3200 nM,> 25000 nM,13700 nM,> 25000 nM,> 7900 nM,1570 nM,1740 nM,1660 nM,2150 nM,769 nM,471 nM,1670 nM,1810 nM,4910 nM,447 nM,608 nM
